Patent publication USRE35145E, “Substituted phthalocyanine” (Zeneca Limited, priority 1987, dated 1996)

Experiments:
[1] = Near infra-red absorption spectrum in solution (WLmax, ECmax, band width); assay type: physicochemical
Excerpt: The region from 750 to 1100 nm is of particular importance for optical character recognition (OCR) and for energy conversion, e.g. from laser radiation to heat. Many OCR systems use solid state semi-conductor lasers, which generally emit at 780-830 nm, as the radiation source and photodiode detectors based on silicon which have peak sensitivity around 900 rim.
WLmax is the wavelength of the absorption maximum; and
ECmax is the extinction coefficient at the absorption maximum.

[2] = Solubility in water, MEK, ethanol, glycols; assay type: physicochemical; conditions: 25° C., percentages by weight
Excerpt: Various applications of the present compounds, especially for printing inks, require products which are soluble in solvents of differing polarities. The major requirements are for water-soluble products (water and water-alcohol or water-glycol mixtures), alcohol (typically methanol, ethanol and propanol) and glycol (typically ethylene glycol and diethylene glycol) soluble products and ketone (typically MEK) soluble products.

## hepta(4-methylphenylthio)-tetra(1-amino-2-thio-phen-1,2-ylene)-CuPc [OTCPC]
[1]; in CH3 Cl
  WLmax (wavelength of the absorption maximum): 890 nm
[1]; in MEK
  ECmax (extinction coefficient at the absorption maximum): 46,000
[2]
  Solubility: 10%
